Organism: Rattus norvegicus
Assay: DrugMatrix - Regimen: Daily Repeat
Assay type: toxicity, organism-based, Sprague-Dawley
Design: regimen Daily Repeat, gender Male, age 6-8 weeks
Settings: in vivo, po, route oral GAVAGE, vehicle .5 % CMC; for ABSOLUTE BASOPHIL / ABSOLUTE EOSINOPHIL / ABSOLUTE LYMPHOCYTE / ABSOLUTE MONOCYTE / ABSOLUTE SEGMENTED NEUTROPHIL / BASOPHIL / EOSINOPHIL / ERYTHROCYTE COUNT / HEMATOCRIT / HEMOGLOBIN / LEUKOCYTE COUNT / LYMPHOCYTE / MEAN CORPUSCULAR HEMOGLOBIN / MEAN CORPUSCULAR HEMOGLOBIN CONCENTRATION / MEAN CORPUSCULAR VOLUME / MONOCYTE / NEUTROPHIL / NUCLEATED RED BLOOD CELLS / PLATELET COUNT: tissue Blood; for ALANINE AMINOTRANSFERASE / ALBUMIN / ALKALINE PHOSPHATASE / ASPARTATE AMINOTRANSFERASE / BLOOD UREA NITROGEN / CARBON DIOXIDE / CHLORIDE / CHOLESTEROL / CREATINE PHOSPHOKINASE / CREATININE / GLUCOSE / LACTATE DEHYDROGENASE / LIPASE / PHOSPHORUS / POTASSIUM / SODIUM / TOTAL BILIRUBIN / TOTAL PROTEIN / URIC ACID: tissue Plasma
[1] = 0 mg/kg, 72 h, dose level Control, time 3 day
[2] = 0 mg/kg, 120 h, dose level Control, time 5 day
[3] = 100 mg/kg, 72 h, dose level Low, time 3 day

Structure (SMILES): CN/C(=N/CCSCc1nc[nH]c1C)NC#N [CIMETIDINE]
- ABSOLUTE BASOPHIL [1]: 0 CELLS/uL
- ABSOLUTE EOSINOPHIL [1]: 0 CELLS/uL
- ABSOLUTE LYMPHOCYTE [1]: 12191.17 CELLS/uL
- ABSOLUTE MONOCYTE [1]: 183.17 CELLS/uL
- ABSOLUTE SEGMENTED NEUTROPHIL [1]: 1192.33 CELLS/uL
- BASOPHIL [1]: 0%
- EOSINOPHIL [1]: 0%
- ERYTHROCYTE COUNT [1]: 5.51 x10E6/uL
- HEMATOCRIT [1]: 35.45%
- HEMOGLOBIN [1]: 13.82 G/DL
- LEUKOCYTE COUNT [1]: 13.57 x10E3/uL
- LYMPHOCYTE [1]: 89.83%
- MEAN CORPUSCULAR HEMOGLOBIN [1]: 25.1 pg
- MEAN CORPUSCULAR HEMOGLOBIN CONCENTRATION [1]: 38.98 G/DL
- MEAN CORPUSCULAR VOLUME [1]: 64.42 fL
- MONOCYTE [1]: 1.33%
- NEUTROPHIL [1]: 8.83%
- NUCLEATED RED BLOOD CELLS [1]: 0 /100WBC
- PLATELET COUNT [1]: 1118.17 x10E3/uL
- ALANINE AMINOTRANSFERASE [1]: 55 u/L
- ALBUMIN [1]: 4.15 G/DL
- ALKALINE PHOSPHATASE [1]: 449.5 u/L
- ASPARTATE AMINOTRANSFERASE [1]: 112.83 u/L
- BLOOD UREA NITROGEN [1]: 17.33 mg/dL
- CARBON DIOXIDE [1]: 29.5 mmol/L
- CHLORIDE [1]: 101 MEQ/L
- CHOLESTEROL [1]: 70 mg/dL
- CREATINE PHOSPHOKINASE [1]: 1325.83 u/L
- CREATININE [1]: 0.18 mg/dL
- GLUCOSE [1]: 171.5 mg/dL
- LACTATE DEHYDROGENASE [1]: 386 u/L
- LIPASE [1]: 10 u/L
- PHOSPHORUS [1]: 11.57 mg/dL
- POTASSIUM [1]: 6.21 MEQ/L
- SODIUM [1]: 141.65 MEQ/L
- TOTAL BILIRUBIN [1]: 0.15 mg/dL
- TOTAL PROTEIN [1]: 5.75 G/DL
- URIC ACID [1]: 1.28 mg/dL
- ABSOLUTE BASOPHIL [2]: 0 CELLS/uL
- ABSOLUTE EOSINOPHIL [2]: 138.17 CELLS/uL
- ABSOLUTE LYMPHOCYTE [2]: 13283.17 CELLS/uL
- ABSOLUTE MONOCYTE [2]: 303.83 CELLS/uL
- ABSOLUTE SEGMENTED NEUTROPHIL [2]: 1308.17 CELLS/uL
- BASOPHIL [2]: 0%
- EOSINOPHIL [2]: 1%
- ERYTHROCYTE COUNT [2]: 5.32 x10E6/uL
- HEMATOCRIT [2]: 33.8%
- HEMOGLOBIN [2]: 13.63 G/DL
- LEUKOCYTE COUNT [2]: 15.03 x10E3/uL
- LYMPHOCYTE [2]: 88.33%
- MEAN CORPUSCULAR HEMOGLOBIN [2]: 25.68 pg
- MEAN CORPUSCULAR HEMOGLOBIN CONCENTRATION [2]: 40.35 G/DL
- MEAN CORPUSCULAR VOLUME [2]: 63.67 fL
- MONOCYTE [2]: 1.83%
- NEUTROPHIL [2]: 8.83%
- NUCLEATED RED BLOOD CELLS [2]: 0 /100WBC
- PLATELET COUNT [2]: 1097.5 x10E3/uL
- ALANINE AMINOTRANSFERASE [2]: 54.5 u/L
- ALBUMIN [2]: 4.27 G/DL
- ALKALINE PHOSPHATASE [2]: 337 u/L
- ASPARTATE AMINOTRANSFERASE [2]: 94.67 u/L
- BLOOD UREA NITROGEN [2]: 17 mg/dL
- CARBON DIOXIDE [2]: 28.33 mmol/L
- CHLORIDE [2]: 101.5 MEQ/L
- CHOLESTEROL [2]: 71.33 mg/dL
- CREATINE PHOSPHOKINASE [2]: 628.17 u/L
- CREATININE [2]: 0.19 mg/dL
- GLUCOSE [2]: 177.83 mg/dL
- LACTATE DEHYDROGENASE [2]: 500.5 u/L
- LIPASE [2]: 9.5 u/L
- PHOSPHORUS [2]: 12.3 mg/dL
- POTASSIUM [2]: 5.63 MEQ/L
- SODIUM [2]: 143.03 MEQ/L
- TOTAL BILIRUBIN [2]: 0.2 mg/dL
- TOTAL PROTEIN [2]: 6.02 G/DL
- URIC ACID [2]: 1.5 mg/dL
- ABSOLUTE BASOPHIL [3]: 0 CELLS/uL
- ABSOLUTE EOSINOPHIL [3]: 0 CELLS/uL
- ABSOLUTE LYMPHOCYTE [3]: 13567.33 CELLS/uL
- ABSOLUTE MONOCYTE [3]: 279 CELLS/uL
- ABSOLUTE SEGMENTED NEUTROPHIL [3]: 1153.67 CELLS/uL
- BASOPHIL [3]: 0%
- EOSINOPHIL [3]: 0%
- ERYTHROCYTE COUNT [3]: 5.31 x10E6/uL
- HEMATOCRIT [3]: 33.83%
- HEMOGLOBIN [3]: 13.33 G/DL
- LEUKOCYTE COUNT [3]: 15 x10E3/uL
- LYMPHOCYTE [3]: 89.67%
- MEAN CORPUSCULAR HEMOGLOBIN [3]: 25.1 pg
- MEAN CORPUSCULAR HEMOGLOBIN CONCENTRATION [3]: 39.4 G/DL
- MEAN CORPUSCULAR VOLUME [3]: 63.63 fL
- MONOCYTE [3]: 2%
- NEUTROPHIL [3]: 8.33%
- NUCLEATED RED BLOOD CELLS [3]: 0 /100WBC
- PLATELET COUNT [3]: 1282 x10E3/uL
- ALANINE AMINOTRANSFERASE [3]: 53 u/L
- ALBUMIN [3]: 4.17 G/DL
- ALKALINE PHOSPHATASE [3]: 373 u/L
- ASPARTATE AMINOTRANSFERASE [3]: 80.33 u/L
- BLOOD UREA NITROGEN [3]: 17.67 mg/dL
- CARBON DIOXIDE [3]: 30 mmol/L
- CHLORIDE [3]: 100.33 MEQ/L
- CHOLESTEROL [3]: 78.33 mg/dL
- CREATINE PHOSPHOKINASE [3]: 276 u/L
- CREATININE [3]: 0.18 mg/dL
- GLUCOSE [3]: 159.67 mg/dL
- LACTATE DEHYDROGENASE [3]: 157.33 u/L
- LIPASE [3]: 10 u/L
- PHOSPHORUS [3]: 10.93 mg/dL
- POTASSIUM [3]: 6.04 MEQ/L
- SODIUM [3]: 141.53 MEQ/L
- TOTAL BILIRUBIN [3]: 0.17 mg/dL
- TOTAL PROTEIN [3]: 5.77 G/DL
- URIC ACID [3]: 1.33 mg/dL
